From PubChem BioAssay (NCI) come the findings set out here.

Several values for one entry are separate records, joined by “and”; a condition that tells them apart may be missing. Equal values may be shown once.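 1) Cells in 96-well plates. 2) Compound, 48 h, 5 concentrations. 3) Linear interpolation between surrounding doses. 4) Unreached endpoint = highest concentration. The concentration for 50% growth inhibition is given as GI50. TGI: concentration producing complete growth inhibition.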

Some test systems named below: SK-MEL-5 melanoma; UACC-62 melanoma; NCI-H522 lung; MDA-MB-231 breast; OVCAR-3 ovarian; A549 NSCLC; ACHN renal; DU-145 prostate; T-47D breast; NCI-H226 lung.
Holding throughout (assay): inhibition of tumour cell growth, NCI panel, 48 h

As for `CC1(O)CC(c2nc(-c3ccc4ccc(-c5ccccc5)nc4c3)c3c(N)nccn23)C1` (stereo not given), the GI50 was 3.38 µM with SK-MEL-5 melanoma; 10.8 µM and > 10 µM in the assay with UACC-62 melanoma; 12 µM and > 10 µM with NCI-H522 lung; 6.97 µM and 5.12 µM in the assay with MDA-MB-231 breast; 15 µM and > 10 µM in the assay on OVCAR-3 ovarian; 10.5 µM and > 10 µM in the assay on A549 NSCLC. In addition, the GI50 in the assay on ACHN renal is 7.44 µM and 7.79 µM; in the assay on DU-145 prostate, 7.4 µM and 8.12 µM; with T-47D breast, 3.94 µM and 2.82 µM; in the assay with NCI-H226 lung, 3.72 µM and 3.12 µM. For the same compound, the TGI in the assay on SK-MEL-5 melanoma is 14.9 µM; in the assay on UACC-62 melanoma, 32.2 µM and > 10 µM; in the assay with NCI-H522 lung, 35.5 µM and > 10 µM; with MDA-MB-231 breast, 38.1 µM and > 10 µM; with OVCAR-3 ovarian it was 34.7 µM and > 10 µM; in the assay on A549 NSCLC it was greater than 100 µM. Further, the TGI in the assay on ACHN renal is greater than 100 µM; in the assay with DU-145 prostate it was greater than 86.8 µM; in the assay with T-47D breast it was 24.1 µM and > 10 µM; with NCI-H226 lung, 49.7 µM and > 10 µM.

With `COc1ccccc1N1CCN(CCc2c[nH]c3cc4c(cc23)OCO4)CC1`, the GI50 with SK-MEL-5 melanoma was 13.2 µM; in the assay with UACC-62 melanoma it was 32.2 µM; in the assay with NCI-H522 lung it was 44.2 µM; in the assay with MDA-MB-231 breast it was 21.4 µM; in the assay with OVCAR-3 ovarian, 30.2 µM; in the assay with A549 NSCLC, 31 µM. Besides, the GI50 with ACHN renal was 21.3 µM; in the assay with DU-145 prostate, 28.9 µM; in the assay on T-47D breast, 19.8 µM; with NCI-H226 lung, 29.9 µM. For the same compound, the TGI with SK-MEL-5 melanoma was 26.2 µM; in the assay with UACC-62 melanoma, greater than 100 µM; in the assay with NCI-H522 lung, greater than 100 µM; in the assay on MDA-MB-231 breast it was 77.7 µM; in the assay on OVCAR-3 ovarian it was greater than 100 µM; in the assay on A549 NSCLC, greater than 100 µM. In addition, the TGI is greater than 100 µM in the assay on ACHN renal, greater than 100 µM in the assay with DU-145 prostate, 77.3 µM in the assay on T-47D breast and greater than 100 µM in the assay on NCI-H226 lung.

For the compound `CCN1Cc2c(ccc(F)c2C#N)O[C@@H](C)CNC(=O)c2c(N)nn3ccc1nc23`, the GI50 in the assay on SK-MEL-5 melanoma was 3.46 µM; in the assay on UACC-62 melanoma, 0.632 µM; with NCI-H522 lung, 5.04 µM; in the assay with MDA-MB-231 breast, 1.32 µM; with OVCAR-3 ovarian, 3.37 µM; with A549 NSCLC, 2.85 µM. The GI50 is 0.676 µM in the assay on ACHN renal, 2.09 µM with DU-145 prostate, 2.78 µM with T-47D breast and 3.79 µM in the assay with NCI-H226 lung. Besides, the TGI stood at 15.2 µM with SK-MEL-5 melanoma; 3.65 µM in the assay on UACC-62 melanoma; 41.3 µM with NCI-H522 lung; 4.21 µM with MDA-MB-231 breast; 18.1 µM in the assay with OVCAR-3 ovarian; 24 µM with A549 NSCLC. In addition, the TGI in the assay with ACHN renal was 6.86 µM; with DU-145 prostate, 15.7 µM; in the assay on T-47D breast, 56.3 µM; with NCI-H226 lung, 18.6 µM.

For `Cc1ccc2nc(-c3ccccc3)c(N=O)n2c1`, the TGI was greater than 100 µM with SK-MEL-5 melanoma; 49.6 µM in the assay with UACC-62 melanoma; greater than 100 µM in the assay on NCI-H522 lung; 73.1 µM in the assay on MDA-MB-231 breast; greater than 100 µM with OVCAR-3 ovarian; greater than 100 µM in the assay with A549 NSCLC. Besides, the TGI in the assay with ACHN renal, in the assay on DU-145 prostate, in the assay on T-47D breast and with NCI-H226 lung was greater than 100 µM throughout.

`COc1cc(/C=C/C(=O)c2c(C)nc3ccccc3c2/C=C/c2ccc(C)cc2)cc(OC)c1OC`: the GI50 in the assay with SK-MEL-5 melanoma is 1.75 µM; in the assay with UACC-62 melanoma it was 1.6 µM; in the assay on NCI-H522 lung, 1.83 µM; in the assay on MDA-MB-231 breast it was 2.14 µM; in the assay on OVCAR-3 ovarian, 1.76 µM; in the assay with A549 NSCLC, 2.94 µM. In addition, the GI50 in the assay with ACHN renal is 1.99 µM; in the assay with DU-145 prostate, 1.86 µM; in the assay on T-47D breast it was 2.49 µM; in the assay with NCI-H226 lung, 2.18 µM. Further, the TGI was 3.24 µM with SK-MEL-5 melanoma; 3.08 µM with UACC-62 melanoma; 5.56 µM with NCI-H522 lung; 5.23 µM in the assay on MDA-MB-231 breast; 3.23 µM in the assay on OVCAR-3 ovarian; greater than 100 µM in the assay with A549 NSCLC. The TGI was 4.6 µM with ACHN renal, 3.66 µM in the assay with DU-145 prostate, greater than 100 µM in the assay with T-47D breast and 6.11 µM in the assay with NCI-H226 lung.

With `O=C(c1ccccc1)C(Br)C(Br)c1cccc([N+](=O)[O-])c1` (stereo not given), the GI50 was 2.89 µM in the assay on SK-MEL-5 melanoma; 1.79 µM in the assay on UACC-62 melanoma; 1.11 µM in the assay with NCI-H522 lung; 1.96 µM in the assay with MDA-MB-231 breast; 1.61 µM with OVCAR-3 ovarian; 14.3 µM in the assay on A549 NSCLC. Besides, the GI50 in the assay with ACHN renal was 1.46 µM; with DU-145 prostate it was 2.48 µM; in the assay with T-47D breast it was 2.13 µM; with NCI-H226 lung, 1.74 µM. Also, the TGI stood at 10.8 µM in the assay on SK-MEL-5 melanoma; 3.56 µM in the assay with UACC-62 melanoma; 2.57 µM in the assay with NCI-H522 lung; 3.79 µM with MDA-MB-231 breast; 2.96 µM in the assay on OVCAR-3 ovarian; 32.3 µM in the assay on A549 NSCLC. The TGI is 2.77 µM in the assay with ACHN renal, 6.33 µM in the assay with DU-145 prostate, 5.65 µM in the assay on T-47D breast and 3.46 µM with NCI-H226 lung.

For the compound `COC(=O)CCC1CCC(c2cc(F)ccc2F)(S(=O)(=O)c2ccc(Cl)cc2)CC1` (stereo not given), the GI50 in the assay on SK-MEL-5 melanoma is 28.4 µM; in the assay with UACC-62 melanoma, 69.4 µM; with NCI-H522 lung it was 62.4 µM; in the assay with MDA-MB-231 breast, greater than 100 µM; with OVCAR-3 ovarian it was 83.7 µM; in the assay on A549 NSCLC, 64.4 µM. In addition, the GI50 in the assay with ACHN renal is greater than 100 µM; in the assay on DU-145 prostate, greater than 100 µM; with T-47D breast it was 39.3 µM; in the assay on NCI-H226 lung, 86.8 µM. The TGI with SK-MEL-5 melanoma, in the assay on UACC-62 melanoma, with NCI-H522 lung, with MDA-MB-231 breast, in the assay on OVCAR-3 ovarian and in the assay with A549 NSCLC was greater than 100 µM each time. Also, the TGI with ACHN renal, in the assay on DU-145 prostate, with T-47D breast and with NCI-H226 lung was greater than 100 µM throughout.

Turning to `Cc1ccc2c(c1)C(C)Cc1c(Cl)ncnc1N2C` (stereo not given), the GI50 in the assay with SK-MEL-5 melanoma was 1.86 µM; in the assay on UACC-62 melanoma, 3.72 µM; in the assay with NCI-H522 lung it was 2.67 µM; in the assay on MDA-MB-231 breast, 2.55 µM; in the assay with OVCAR-3 ovarian, 2.26 µM; in the assay on A549 NSCLC, 4.26 µM. The GI50 in the assay on ACHN renal was 3.7 µM; in the assay with DU-145 prostate, 4.21 µM; in the assay on T-47D breast, 6.9 µM; with NCI-H226 lung, 2.03 µM. Also, the TGI is 3.41 µM in the assay on SK-MEL-5 melanoma; 21.8 µM with UACC-62 melanoma; 8.03 µM in the assay with NCI-H522 lung; 6.84 µM in the assay on MDA-MB-231 breast; 5.4 µM in the assay with OVCAR-3 ovarian; greater than 100 µM in the assay on A549 NSCLC. The TGI was greater than 100 µM in the assay with ACHN renal, 91.9 µM with DU-145 prostate, 65 µM in the assay with T-47D breast and 5.34 µM with NCI-H226 lung.
